# Assay: Membrane potential dye assay: HEK-293 cells overexpressing the channel of interest were seeded in a 96-well plate at a density of 30000 cells/well and incubated at 37° C./5% CO2 for 48 hr. The assay was carried out using the Red Membrane Potential Dye (Molecular Devices) following the manufacturer's instructions. Briefly, the cells were incubated with 1× red membrane potential dye for 1.5 hour. The cells were then treated with various concentrations of the test compounds for 15-20 min followed by depolarization with 10-30 μM Veratridine. The fluorescence was read following excitation at 510-545 nm and emission at 565-625 nm in FLIPR. The “max-min” fluorescence values were used to calculate the % inhibition.
# Settings: HEK293
row,Compound,IC50 [µM]
1,O=C1CCCN1c1cc(C(F)(F)F)ccc1[C@H]1CCOc2cc(S(=O)(=O)Nc3ccncn3)ccc21 (racemic),> 10
2,Cn1nccc1-c1cc(C(F)(F)F)ccc1[C@H]1CCOc2cc(S(=O)(=O)Nc3cnccn3)ccc21,> 10
3,O=S(=O)(Nc1ncc(F)cn1)c1ccc2c(c1)OCC[C@H]2c1ccc(C(F)(F)F)cc1-c1ccc(F)nc1,> 10
4,O=S(=O)(Nc1ncccn1)c1ccc2c(c1)OCC[C@@H]2c1ccc(C(F)(F)F)cc1Cl (racemic),> 10
5,CS(=O)(=O)CCc1cc(C(F)(F)F)ccc1[C@H]1CCOc2cc(S(=O)(=O)Nc3ncccn3)ccc21,> 10
6,O=S(=O)(Nc1ncccn1)c1ccc2c(c1)OCC[C@H]2c1ccc(C(F)(F)F)cc1-c1ccc(F)cn1,> 10
7,O=S1(=O)CCN(c2cc(C(F)(F)F)ccc2[C@H]2CCOc3cc(S(=O)(=O)Nc4ccncn4)ccc32)CC1 (racemic),> 10
8,O=C1OCCN1c1cc(C(F)(F)F)ccc1[C@H]1CCOc2cc(S(=O)(=O)Nc3cccc(F)n3)ccc21 (racemic),> 10
9,COCCOc1cc(C(F)(F)F)ccc1[C@H]1CCOc2cc(S(=O)(=O)Nc3ncc(F)cn3)ccc21 (racemic),> 10
10,Cc1cccc(NS(=O)(=O)c2ccc3c(c2)OCC[C@H]3c2ccc(C(F)(F)F)cc2-c2ccnn2C)n1,> 10
11,Cc1nc(-c2cc(C(F)(F)F)ccc2[C@H]2CCOc3cc(S(=O)(=O)Nc4ncccn4)ccc32)cs1,> 10
12,O=S(=O)(Nc1cccnn1)c1ccc2c(c1)OCC[C@H]2c1ccc(C(F)(F)F)cc1-c1ccc(F)nc1,> 10
13,Cn1nccc1-c1cc(Cl)ccc1[C@@H]1CCOc2cc(S(=O)(=O)Nc3cccc(F)n3)ccc21,> 10
14,Cc1ccnc(NS(=O)(=O)c2ccc3c(c2)OCC[C@H]3c2ccc(C(F)(F)F)cc2-c2ccnn2C)n1,> 10
15,COCCCCc1cc(C(F)(F)F)ccc1[C@@H]1CCOc2cc(S(=O)(=O)Nc3ncccn3)ccc21,> 10
16,CC(C)Oc1cccc(NS(=O)(=O)c2ccc3c(c2)OCC[C@@H]3c2ccc(C(F)(F)F)cc2-c2ccnn2C)n1,> 10
17,O=S1(=O)CCN(c2cc(C(F)(F)F)ccc2[C@H]2CCOc3cc(S(=O)(=O)Nc4ncc(F)cn4)ccc32)CC1 (racemic),> 10
18,O=S(=O)(Nc1cccnn1)c1ccc2c(c1)OCC[C@@H]2c1ccc(C(F)(F)F)cc1Cl (racemic),> 10
19,O=C(O)c1ccc(-c2cc(C(F)(F)F)ccc2[C@@H]2CCOc3cc(S(=O)(=O)Nc4ncc(F)cn4)ccc32)cc1,> 10
20,O=S(=O)(Nc1cccc(F)n1)c1ccc2c(c1)OCC[C@H]2c1ccc(C(F)(F)F)cc1-n1ccnn1,> 10
21,O=S(=O)(Nc1ncc(F)cn1)c1ccc2c(c1)OCC[C@@H]2c1ccc(C(F)(F)F)cc1Cl (racemic),> 10
22,COc1cc(C(F)(F)F)ccc1[C@@H]1CCOc2cc(S(=O)(=O)Nc3cccc(F)n3)ccc21,> 10
23,O=S(=O)(Nc1ncccn1)c1ccc2c(c1)OCC[C@H]2c1ccc(C(F)(F)F)cc1N1CCOCC1,> 10
24,O=S1(=O)CCN(c2cc(C(F)(F)F)ccc2[C@H]2CCOc3cc(S(=O)(=O)Nc4ncccn4)ccc32)CC1,> 10
25,O=S1(=O)CCN(c2cc(C(F)(F)F)ccc2[C@@H]2CCOc3cc(S(=O)(=O)Nc4ncccn4)ccc32)CC1,> 10
26,O=S(=O)(Nc1cccnn1)c1ccc2c(c1)OCC[C@H]2c1ccc(C(F)(F)F)cc1-c1ccc(F)cn1,> 10

row,Compound,IC50 [µM]
1,Cn1nccc1-c1cc(C(F)(F)F)ccc1[C@@H]1CCOc2cc(S(=O)(=O)Nc3cc(F)ccn3)ccc21,> 10
2,O=S(=O)(Nc1ncccn1)c1ccc2c(c1)OCC[C@H]2c1ccc(C(F)(F)F)cc1OC1CCOCC1,> 10
3,O=C(O)c1ccc(-c2cc(C(F)(F)F)ccc2[C@H]2CCOc3cc(S(=O)(=O)Nc4ncccn4)ccc32)cc1,> 10
4,O=S(=O)(Nc1cccnn1)c1ccc2c(c1)OCC[C@@H]2c1ccc(C(F)(F)F)cc1-c1ccc(F)cn1,> 10
5,O=S(=O)(Nc1ncc(F)cn1)c1ccc2c(c1)OCC[C@@H]2c1ccc(C(F)(F)F)cc1-n1ccnn1,> 10
6,O=S(=O)(Nc1ccncn1)c1ccc2c(c1)OCC[C@@H]2c1ccc(C(F)(F)F)cc1Cl (racemic),> 10
7,COCCCCc1cc(C(F)(F)F)ccc1[C@H]1CCOc2cc(S(=O)(=O)Nc3ncc(F)cn3)ccc21 (racemic),> 10
8,Cn1nccc1-c1cc(C(F)(F)F)ccc1[C@@H]1CCOc2cc(S(=O)(=O)Nc3ncccc3F)ccc21,> 10
9,Cn1nccc1-c1cc(C(F)(F)F)ccc1[C@@H]1CCOc2cc(S(=O)(=O)Nc3cnccn3)ccc21,> 10
10,O=S(=O)(Nc1cccc(F)n1)c1ccc2c(c1)OCC[C@H]2c1ccc(C(F)(F)F)cc1-c1ccc(F)cc1,> 10
11,CCCc1cc(C(F)(F)F)ccc1[C@H]1CCOc2cc(S(=O)(=O)Nc3ncc(F)cn3)ccc21,> 10
12,CCCc1cc(C(F)(F)F)ccc1[C@@H]1CCOc2cc(S(=O)(=O)Nc3ncccn3)ccc21,> 10
13,O=S(=O)(Nc1ncccn1)c1ccc2c(c1)OCC[C@H]2c1ccc(C(F)(F)F)cc1-n1ccnn1,> 10
14,CC(C)Oc1cccc(NS(=O)(=O)c2ccc3c(c2)OCC[C@H]3c2ccc(C(F)(F)F)cc2-c2ccnn2C)n1,> 10
15,Cn1nccc1-c1cc(C(F)(F)F)ccc1[C@H]1CCOc2cc(S(=O)(=O)Nc3ccncn3)ccc21,> 10
16,O=C1CCCN1c1cc(C(F)(F)F)ccc1[C@H]1CCOc2cc(S(=O)(=O)Nc3cccnn3)ccc21 (racemic),> 10
17,O=S(=O)(Nc1ccncn1)c1ccc2c(c1)OCC[C@@H]2c1ccc(C(F)(F)F)cc1-c1ccc(F)cc1,> 10
18,O=S(=O)(Nc1ncc(F)cn1)c1ccc2c(c1)OCC[C@@H]2c1ccc(C(F)(F)F)cc1OC1COC1 (racemic),> 10
19,O=C(O)c1ccc(-c2cc(C(F)(F)F)ccc2[C@H]2CCOc3cc(S(=O)(=O)Nc4cccc(F)n4)ccc32)cc1 (racemic),> 10
20,O=C1OCCN1c1cc(C(F)(F)F)ccc1[C@H]1CCOc2cc(S(=O)(=O)Nc3ncccn3)ccc21 (racemic),> 10
21,O=C1OCCN1c1cc(C(F)(F)F)ccc1[C@H]1CCOc2cc(S(=O)(=O)Nc3ncc(F)cn3)ccc21 (racemic),> 10
22,COCCCOc1cc(C(F)(F)F)ccc1[C@@H]1CCOc2cc(S(=O)(=O)Nc3ncccn3)ccc21,> 10
23,O=C1COCCN1c1cc(C(F)(F)F)ccc1[C@@H]1CCOc2cc(S(=O)(=O)Nc3ncccn3)ccc21,> 10
24,O=S(=O)(Nc1cccc(F)n1)c1ccc2c(c1)OCC[C@H]2c1ccc(C(F)(F)F)cc1OC1CCOCC1,3.65
25,Cc1ccnc(NS(=O)(=O)c2ccc3c(c2)OCC[C@@H]3c2ccc(C(F)(F)F)cc2-c2ccnn2C)n1,> 10
26,CC(C)Oc1ccc(-c2cc(C(F)(F)F)ccc2[C@H]2CCOc3cc(S(=O)(=O)Nc4ncc(F)cn4)ccc32)cn1,> 10

row,Compound,IC50 [µM]
1,O=C(O)c1ccc(-c2cc(C(F)(F)F)ccc2[C@H]2CCOc3cc(S(=O)(=O)Nc4cccnn4)ccc32)cc1 (racemic),> 10
2,Cc1nc(-c2cc(C(F)(F)F)ccc2[C@@H]2CCOc3cc(S(=O)(=O)Nc4cccnn4)ccc32)co1,> 10
3,O=S(=O)(Nc1ncc(F)cn1)c1ccc2c(c1)OCC[C@@H]2c1ccc(C(F)(F)F)cc1-c1ccc(F)cc1,> 10
4,COCCc1cc(C(F)(F)F)ccc1[C@H]1CCOc2cc(S(=O)(=O)Nc3cccnn3)ccc21 (racemic),> 10
5,O=C1CCCN1c1cc(C(F)(F)F)ccc1[C@@H]1CCOc2cc(S(=O)(=O)Nc3ncc(F)cn3)ccc21,> 10
6,O=S(=O)(Nc1ccncn1)c1ccc2c(c1)OCC[C@H]2c1ccc(C(F)(F)F)cc1-n1ccnn1,> 10
7,O=S(=O)(Nc1ncc(F)cn1)c1ccc2c(c1)OCC[C@H]2c1ccc(C(F)(F)F)cc1-c1ccc(F)cc1,> 10
8,O=S(=O)(Nc1cccnn1)c1ccc2c(c1)OCC[C@H]2c1ccc(C(F)(F)F)cc1OC1CCOCC1,> 10
9,CCCc1cc(C(F)(F)F)ccc1[C@@H]1CCOc2cc(S(=O)(=O)Nc3ncc(F)cn3)ccc21,> 10
10,O=S(=O)(Nc1ncccn1)c1ccc2c(c1)OCC[C@H]2c1ccc(C(F)(F)F)cc1C1CCOCC1,> 10
11,O=S(=O)(Nc1ccncn1)c1ccc2c(c1)OCC[C@H]2c1ccc(C(F)(F)F)cc1OC1CCOCC1,> 10
12,O=S(=O)(Nc1ncc(F)cn1)c1ccc2c(c1)OCC[C@H]2c1ccc(C(F)(F)F)cc1-n1ccnn1,> 10
13,CS(=O)(=O)CCc1cc(C(F)(F)F)ccc1[C@H]1CCOc2cc(S(=O)(=O)Nc3cccc(F)n3)ccc21,> 10
14,O=S(=O)(Nc1cccc(F)n1)c1ccc2c(c1)OCC[C@H]2c1ccc(C(F)(F)F)cc1-n1cccn1,> 10
15,O=S(=O)(Nc1ncc(F)cn1)c1ccc2c(c1)OCC[C@@H]2c1ccc(C(F)(F)F)cc1-c1ccc(F)nc1,> 10
16,CC(C)Oc1ccc([C@H]2CCOc3cc(S(=O)(=O)Nc4cccc(F)n4)ccc32)c(-c2ccnn2C)c1,> 10
17,CC(C)Oc1ccc([C@@H]2CCOc3cc(S(=O)(=O)Nc4cccc(F)n4)ccc32)c(-c2ccnn2C)c1,> 10
18,CS(=O)(=O)CCc1cc(C(F)(F)F)ccc1[C@H]1CCOc2cc(S(=O)(=O)Nc3ccncn3)ccc21,> 10
19,O=S(=O)(Nc1ccncn1)c1ccc2c(c1)OCC[C@H]2c1ccc(C(F)(F)F)cc1-c1ccc(F)cc1,> 10
20,Cn1nccc1-c1cc(C(F)(F)F)ccc1[C@H]1CCOc2cc(S(=O)(=O)Nc3cccnc3F)ccc21,> 10
21,O=S(=O)(Nc1ncccn1)c1ccc2c(c1)OCC[C@@H]2c1ccc(C(F)(F)F)cc1-n1ccnn1,> 10
22,Cc1nc(-c2cc(C(F)(F)F)ccc2[C@@H]2CCOc3cc(S(=O)(=O)Nc4cccc(F)n4)ccc32)cs1,> 10
23,O=S(=O)(Nc1cccnn1)c1ccc2c(c1)OCC[C@@H]2c1ccc(C(F)(F)F)cc1-n1ccnn1,> 10
24,Cc1nc(-c2cc(C(F)(F)F)ccc2[C@@H]2CCOc3cc(S(=O)(=O)Nc4ccncn4)ccc32)cs1,> 10
25,CCOc1ccc(-c2cc(C(F)(F)F)ccc2[C@H]2CCOc3cc(S(=O)(=O)Nc4ncc(F)cn4)ccc32)cn1,> 10
26,COCCCc1cc(C(F)(F)F)ccc1[C@H]1CCOc2cc(S(=O)(=O)Nc3ncc(F)cn3)ccc21 (racemic),> 10
